Data taken from publication PMC6112376, “Comprehensive Analyses and Prioritization of Tox21 10K Chemicals Affecting Mitochondrial Function by in-Depth Mechanistic Studies” (Environmental Health Perspectives, 2018).
Like-named read-outs stand apart in the source and are kept apart here.

How the values were obtained:
hNSC = assay: MMP assay in human neural stem cells (hNSC); assay type: cell-based; conditions: Homo sapiens, Neural stem cell, 1 h, read-out: hNSC IC50 (MMP)
HepG2 cells [1] = assay: ROS-Glo hydrogen peroxide (ROS) assay; assay type: cell-based, human; conditions: Homo sapiens, HepG2, 2 h, read-out: ROS (HepG2) EC50
HepG2 cells [2] = assay: Intracellular ATP content (cell viability) assay; assay type: cell-based, human; conditions: Homo sapiens, HepG2, 40 h
[3] = tested on: Nrf2/ARE (ARE-bla HepG2 cells); assay: ARE β-lactamase reporter gene assay; assay type: cell-based, human; conditions: Homo sapiens, HepG2, 16 h, read-out: ARE (HepG2) EC50
[4] = tested on: isolated rat liver mitochondria; assay: Oxygen consumption, Clark-type oxygen electrode; assay type: biochemical
[5] = tested on: mitochondrial respiratory chain complex I; assay type: biochemical, rat
[6] = target: T1, mitochondrial respiratory chain complex II (Rattus norvegicus, UniProt P21913+Q641Z9+Q6PCT8+Q920L2); assay: Respiratory chain complex II activity; assay type: biochemical; conditions: tested up to 100μM
T1 construct: Submitochondrial particles were prepared by subjecting the intact rat mitochondria, isolated as described above, to three successive freeze–thaw cycles; from tissue; host or cells: rat liver mitochondria (submitochondrial particles)
T1 sequence (Q920L2 35-656): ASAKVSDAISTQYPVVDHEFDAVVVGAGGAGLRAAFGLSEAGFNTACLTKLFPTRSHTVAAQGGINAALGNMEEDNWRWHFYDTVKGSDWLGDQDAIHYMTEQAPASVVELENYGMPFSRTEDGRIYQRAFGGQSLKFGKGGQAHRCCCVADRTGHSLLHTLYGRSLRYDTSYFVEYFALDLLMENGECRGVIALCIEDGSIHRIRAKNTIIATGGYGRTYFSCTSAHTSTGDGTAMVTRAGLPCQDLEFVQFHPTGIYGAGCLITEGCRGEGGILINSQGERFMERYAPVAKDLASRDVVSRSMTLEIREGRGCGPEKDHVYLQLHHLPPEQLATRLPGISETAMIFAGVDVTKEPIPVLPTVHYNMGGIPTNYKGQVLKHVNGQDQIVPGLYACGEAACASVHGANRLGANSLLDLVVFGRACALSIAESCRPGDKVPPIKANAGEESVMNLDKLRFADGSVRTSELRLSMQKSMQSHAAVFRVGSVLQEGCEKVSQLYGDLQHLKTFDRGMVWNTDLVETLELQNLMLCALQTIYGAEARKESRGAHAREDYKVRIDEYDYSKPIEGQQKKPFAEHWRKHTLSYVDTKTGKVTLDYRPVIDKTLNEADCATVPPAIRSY
T1 sequence (P21913 31-282): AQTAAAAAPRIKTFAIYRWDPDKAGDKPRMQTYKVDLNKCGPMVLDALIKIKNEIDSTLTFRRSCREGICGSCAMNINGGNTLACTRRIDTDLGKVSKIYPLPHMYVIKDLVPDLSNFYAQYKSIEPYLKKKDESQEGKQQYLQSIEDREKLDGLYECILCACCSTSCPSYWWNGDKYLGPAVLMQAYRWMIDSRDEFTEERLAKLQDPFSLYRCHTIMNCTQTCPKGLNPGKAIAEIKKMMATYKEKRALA
T1 sequence (Q641Z9 1-169): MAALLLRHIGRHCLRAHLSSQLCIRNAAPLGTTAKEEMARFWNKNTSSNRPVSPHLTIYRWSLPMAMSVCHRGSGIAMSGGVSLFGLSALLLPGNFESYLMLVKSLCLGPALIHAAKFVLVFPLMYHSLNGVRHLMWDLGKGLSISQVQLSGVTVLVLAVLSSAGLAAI
T1 sequence (Q6PCT8 57-159): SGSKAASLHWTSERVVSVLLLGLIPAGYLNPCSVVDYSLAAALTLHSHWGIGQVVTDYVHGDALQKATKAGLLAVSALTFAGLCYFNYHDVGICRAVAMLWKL

[7] = tested on: mitochondrial respiratory chain complex III; assay type: biochemical, rat
[8] = tested on: mitochondrial respiratory chain complex IV; assay type: biochemical, rat
[9] = tested on: mitochondrial respiratory chain complex V; assay type: biochemical, rat
[10] = tested on: HeLa cells expressing YFP-Parkin; assay: Parkin translocation assay; assay type: cell-based, human
rat primary hepatocytes [11] = tested on: rat primary hepatocytes
HepG2 cells [12] = conditions: cited from earlier work
[13] = tested on: Caenorhabditis elegans (Bristol N2); conditions: Bristol N2 (wild type), Caenorhabditis elegans, in vivo
HepG2 cells [14] = assay: cells; conditions: Homo sapiens
[15] = tested on: Caenorhabditis elegans strain PE255; assay: In vivo C. elegans ATP status assay; conditions: Caenorhabditis elegans, read-out: LEC LUM: lowest effect concentration for luminescence, a measure of nematode ATP content
rat primary hepatocytes [16] = assay: MMP assay in rat primary hepatocytes; conditions: Rattus norvegicus, Hepatocyte
[17] = tested on: Caenorhabditis elegans (Bristol N2); assay: C. elegans larval development and growth assay

C=C(C)[C@H]1Cc2c(ccc3c2O[C@@H]2COc4cc(OC)c(OC)cc4[C@@H]2C3=O)O1 [Rotenone, reference compound]
IC50 (hNSC): 23.7 µM | EC50 (HepG2 cells [1]): 4.04 µM | IC50 (HepG2 cells [2]; read-out: ATP (HepG2, galactose) IC50): 1.63 µM | IC50 (HepG2 cells [2]; read-out: ATP (HepG2, glucose) IC50): 1.05 µM | EC50 [3]: 0.05 ± 0.02 µM | Potential Mechanism [4]: Inhibitor (at complex I) | effect on mitochondrial respiration (in words) [4]: only inhibited glutamate/malate-driven respiration, but not succinate-driven respiration | I-ADP, % of control (O2 consumption rate) ([4]; 0.00128 µM): 91 (44.7) % of control | I-sub, % of control (O2 consumption rate) ([4]; 0.00128 µM): 113 (15.6) % of control | II-ADP, % of control (O2 consumption rate) ([4]; 0.00128 µM): 98 (87.5) % of control | II-sub, % of control (O2 consumption rate) ([4]; 0.00128 µM): 94 (25.3) % of control | I-ADP, % of control (O2 consumption rate) ([4]; 0.0064 µM): 81 (40.2) % of control | I-sub, % of control (O2 consumption rate) ([4]; 0.0064 µM): 114 (15.8) % of control | II-ADP, % of control (O2 consumption rate) ([4]; 0.0064 µM): 83 (74.3) % of control | II-sub, % of control (O2 consumption rate) ([4]; 0.0064 µM): 56 (15.2) % of control | I-ADP, % of control (O2 consumption rate) ([4]; 0.032 µM): 27 (13.1) % of control | I-sub, % of control (O2 consumption rate) ([4]; 0.032 µM): 86 (11.9) % of control | II-ADP, % of control (O2 consumption rate) ([4]; 0.032 µM): 97 (86.1) % of control | II-sub, % of control (O2 consumption rate) ([4]; 0.032 µM): 79 (21.4) % of control | I-ADP, % of control (O2 consumption rate) ([4]; 0.16 µM): 20 (9.9) % of control | I-sub, % of control (O2 consumption rate) ([4]; 0.16 µM): 71 (9.9) % of control | II-ADP, % of control (O2 consumption rate) ([4]; 0.16 µM): 107 (95.0) % of control | II-sub, % of control (O2 consumption rate) ([4]; 0.16 µM): 97 (26.3) % of control | I-ADP, % of control (O2 consumption rate) ([4]; 0.8 µM): 18 (8.9) % of control | I-sub, % of control (O2 consumption rate) ([4]; 0.8 µM): 64 (8.9) % of control | II-ADP, % of control (O2 consumption rate) ([4]; 0.8 µM): 99 (88.3) % of control | II-sub, % of control (O2 consumption rate) ([4]; 0.8 µM): 99 (26.9) % of control | I-ADP, % of control (O2 consumption rate) ([4]; 4 µM): 19 (9.5) % of control | I-sub, % of control (O2 consumption rate) ([4]; 4 µM): 64 (8.8) % of control | II-ADP, % of control (O2 consumption rate) ([4]; 4 µM): 97 (86.3) % of control | II-sub, % of control (O2 consumption rate) ([4]; 4 µM): 97 (26.2) % of control | I-ADP, % of control (O2 consumption rate) ([4]; 20 µM): 18 (8.8) % of control | I-sub, % of control (O2 consumption rate) ([4]; 20 µM): 62 (8.6) % of control | II-ADP, % of control (O2 consumption rate) ([4]; 20 µM): 95 (84.3) % of control | II-sub, % of control (O2 consumption rate) ([4]; 20 µM): 107 (28.9) % of control | inhibitory effect on Complex I at (concentration) [5]: 0.032 µM | Complex I % inhibition ([5]; at 0.032μM): 37.5±3.32 at 0.032μM % | Complex II % inhibition (activity call) [6]: Inactive | Complex III % inhibition (activity call) [7]: Inactive | Complex IV % inhibition (activity call) [8]: Inactive | Complex V % inhibition (activity call) [9]: Inactive | Parkin recruitment [10]: Inactive | Parkin translocation into mitochondria (in words) ([10]; 3 h): did not induce Parkin translocation | MMP assays efficacy (%) Rat Hepatocytes (rat primary hepatocytes [11]): -86+39% | Rat hepatocytes (efficacy) (MMP) (rat primary hepatocytes [11]): 0.36±0.22 ( −85.9±10.7 ) % | MMP assays efficacy (%) qHTS-HepG2 (HepG2 cells [12]): -104±7% | IC50 (HepG2 cells [12]; read-out: MMP assays IC50 (µM), qHTS-HepG2): 17.4 ± 1.94 µM | inhibitory effect at (concentration) on larval growth in the C. elegans assay [13]: 0.05 µM | IC50 (HepG2 cells [14]; HepG2, 1 h, read-out: HepG2 IC50 Galactose (MMP)): 31.8 µM | IC50 (HepG2 cells [14]; HepG2, 1 h, read-out: HepG2 IC50 Glucose (MMP)): 44.7 µM | IC50 (HepG2 cells [14]; HepG2, read-out: MMP assays IC50 (µM) HepG2): 0.0123 µM | Emax (HepG2 cells [14]; HepG2, read-out: MMP assays efficacy (%) HepG2): 95% | minimal effective concentration [15]: 0.5 µM | IC50 (rat primary hepatocytes [16]; 1 h, read-out: Rat hepatocytes IC50 (MMP)): 0.36 µM | IC50 (rat primary hepatocytes [16]; read-out: MMP assays IC50 (µM) Rat Hepatocytes): 0.2 ± 0.3 µM | larval growth effect at 0.5μM ([17]; 0.5 µM): severe larval growth arrest | minimal effective concentration ([17]; Caenorhabditis elegans, read-out: LEC EXT: lowest effect concentration for extinction, a measure of nematode size): 0.05 µM
